Tests used:
AsPC-1 cells = experiment: Proportion of CD44 and CD24 double positive cells (cancer stem cell surface markers) in AsPC-1 by flow cytometry (Example 12); format: cell-based, human; settings: 72 hr, dihydroquercetin 0.3 mmol/L, metformin 15 mmol/L + dihydroquercetin 0.3 mmol/L, or gemcitabine 100 nmol/L, compared with the control group (FIG. 7)
Description: Each group (N=10) was treated as follows: • (1) Control (vehicle control) group: 1.5% distilled water, 0.3% ethanol and 0.1% DMSO containing medium • (2) Metformin single-treated group: metformin 15 mmol/L • (3) Dihydroquercetin single-treated group: dihydroquercetin 0.3 mmol/L • (4) Metformin-dihydroquercetin combined-treated group: metformin 15 mmol/L+dihydroquercetin 0.3 mmol/L • (5) Gemcitabine single-treated group: gemcitabine 100 nmol/L • (6) Metformin.dihydroquercetin.gemcitabine combined-treated group: metformin 15 mmol/L+dihydroquercetin 0.3 mmol/L+gemcitabine 100 nmol/L
The passage-cultured AsPC-1 cells were dissociated with trypsin, and suspended in fresh medium. The cell density of the cell suspension was determined using a hematocytometer and adjusted to 2×10^4 cells/mL. The cells were seeded on 6-well multiwell culture plate (IWAKI) at 3 mL per well, and cultured overnight under the conditions of 37° C., 5% CO2. […] After washing with FACS (fluorescence activated cell sorting) buffer, the cells were stained with FITC-labeled anti-human CD44 antibody and APC-labeled anti-human CD24 antibody, and treated at 4° C. for 30 min. Thereafter, the cells were washed with the FACS buffer, passed through a 40 micron mesh filter, and the proportion of CD44 and CD24 double positive cells was determined using the flow cytometer (Nippon Becton Dickinson and Company, Ltd.). […]

[1] = tested on: phospho-4E-BP1 (Thr37/Thr46) protein; experiment: Relative phospho-4E-BP1 protein amount (ELISA) in human pancreatic cancer cell line AsPC-1, 24 hr (Example 9); format: cell-based; settings: single or combined
Description: Each group (N=3) was treated as follows. • (1) Control (vehicle control) group: 1% ethanol containing medium • (2) Metformin single-treated group: metformin 1.5, 3 and 6 mmol/L • (3) Dihydroquercetin-single treated group: dihydroquercetin 0.3 mmol/L • (4) Combined-treated group: metformin 1.5, 3 and 6 mmol/L+dihydroquercetin 0.3 mmol/L
The passage-cultured AsPC-1 cells were dissociated with trypsin, and suspended in fresh medium. The cell density of the cell suspension was determined using a hematocytometer and adjusted to 2.5×10^5 cells/mL. The cells were seeded on 12-well multiwell culture plate at 1 mL per well, and cultured overnight under the conditions of 37° C., 5% CO2. On the following day, medium containing metformin or dihydroquercetin or both metformin and dihydroquercetin, at the given concentration, was added into each well. After incubation under the conditions of 37° C., 5% CO2 for 24 hr, the cells in each well were washed twice with D-PBS, and whole cell lysates were prepared using cell lysis buffer. Upon centrifugation, the supernatants were sampled, and the amounts of relative phospho-4E-BP1 (Thr37/Thr46) protein in the samples were quantified using ELISA kits in the same manner as in Example 1. The concentrations of total protein in the whole cell lysates were measured using BCA protein assay, and the relative phospho-4E-BP1 protein amount of each well was normalized with the total protein amount.
To evaluate the influence of the combined use on relative phospho-4E-BP1 protein amount, Dunnett test was performed to compare the combined-treated group with each single agent-treated group. […] The differences were considered statistically significant when the p value was less than 0.05.

[2] = tested on: phospho-4E-BP1 (Thr37/Thr46) protein; experiment: Relative phospho-4E-BP1 protein amount (ELISA) in human liver cancer cell line HuH-7 (Example 4); format: cell-based; settings: metformin 5 mmol/L, dihydroquercetin 0.2 mmol/L, single or combined, 6 hr, control 84.1
Description: (§1) On the following day after cell seeding, test substances were added and the cells were cultured for 6 hr before harvesting them. The amounts of relative phospho-4E-BP1 protein contained in the prepared whole cell lysates were measured and evaluated. Each group (N=3) was treated as follows: • (1) Control (vehicle control) group: 1% ethanol containing medium • (2) Metformin single-treated group: metformin 5 mmol/L • (3) Dihydroquercetin single-treated group: dihydroquercetin 0.2 mmol/L • (4) Combined-treated group: metformin 5 mmol/L+dihydroquercetin 0.2 mmol/L
The passage-cultured HuH-7 cells were dissociated with trypsin, and suspended in fresh medium. The cell density of the cell suspension was determined using a hematocytometer and adjusted to 2.5×10^5 cells/mL. The cells were seeded on 12-well multiwell culture plate at 1 mL per well, and cultured overnight under the conditions of 37° C., 5% CO2. […] Upon centrifugation, the supernatants were sampled, and the amounts of relative phospho-4E-BP1 (Thr37/Thr46) protein in the samples were quantified using ELISA kits in the same manner as in Example 1. The concentrations of the total protein in the whole cell lysates were measured using BCA protein assay, and the relative phospho-4E-BP1 protein amount of each well was normalized with the total protein amount. […]

[3] = tested on: phospho-4E-BP1 (Thr37/Thr46) protein; experiment: Relative phospho-4E-BP1 protein amount (ELISA) in human breast cancer cell line MDA-MB-231 (Example 5); format: cell-based; settings: metformin 5 mmol/L, dihydroquercetin 0.2 mmol/L, single or combined, 6 hr, control 33.3
Description: as §1
The passage-cultured MDA-MB-231 cells were dissociated with trypsin, and suspended in fresh medium. The cell density of the cell suspension was determined using a hematocytometor and adjusted to 2.5×10^5 cells/mL. The cells were seeded on 12-well multiwell culture plate at 1 mL per well, and cultured overnight under the conditions of 37° C., 5% CO2. […] Upon centrifugation, the supernatants were sampled, and the amounts of relative phospho-4E-BP1 (Thr37/Thr46) protein in the samples were quantified using ELISA kits in the same manner as in Example 1. The concentrations of total protein in the whole cell lysates were measured using BOA protein assay, and the relative phospho-4E-BP1 protein amount of each well was normalized with the total protein amount. […]

[4] = tested on: phospho-4E-BP1 (Thr37/Thr46) protein; experiment: Relative phospho-4E-BP1 protein amount (ELISA) in human ovarian cancer cell line Caov-3 (Example 8); format: cell-based; settings: metformin 20 mmol/L, dihydroquercetin 0.2 mmol/L, single or combined, 6 hr, control 21.6
Description: On the following day after cell seeding, test substances were added and the cells were cultured for 6 hr before harvesting them. The amounts of relative phospho-4E-BP1 protein contained in the prepared whole cell lysates were measured and evaluated. Each group (N=3) was treated as follows: • (1) Control (vehicle control) group: 1% ethanol containing medium • (2) Metformin single-treated group: metformin 20 mmol/L • (3) Dihydroquercetin single-treated group: dihydroquercetin 0.2 mmol/L • (4) Combined-treated group: metformin 20 mmol/L+dihydroquercetin 0.2 mmol/L
The passage-cultured Caov-3 cells were dissociated with trypsin, and suspended in fresh medium. The cell density of the cell suspension was determined using a hematocytometer and adjusted to 2.5×10^5 cells/mL. The cells were seeded on 12-well multiwell culture plate at 1 mL per well, and cultured overnight under the conditions of 37° C., 5% CO2. […] Upon centrifugation, the supernatants were sampled, and the amounts of relative phospho-4E-BP1 (Thr37/Thr46) protein in the samples were quantified using ELISA kits in the same manner as in Example 1. The total protein concentrations in the whole cell lysates were measured using BCA protein assay, and the relative phospho-4E-BP1 protein amount of each well was normalized with the total protein amount. […]

[5] = tested on: phospho-4E-BP1 (Thr37/Thr46) protein; experiment: Relative phospho-4E-BP1 protein amount (ELISA) in human prostate cancer cell line 22Rv1 (Example 6); format: cell-based; settings: metformin 10 mmol/L, dihydroquercetin 0.2 mmol/L, single or combined, 6 hr, control 51.0
Description: On the following day after cell seeding, test substances were added and the cells were cultured for 6 hr before harvesting them. The amounts of relative phospho-4E-BP1 protein contained in the prepared whole cell lysates were measured and evaluated. Each group (N=3) was treated as follows: • (1) Control (vehicle control) group: 1% ethanol containing medium • (2) Metformin single-treated group: metformin 10 mmol/L • (3) Dihydroquercetin single-treated group: dihydroquercetin 0.2 mmol/L • (4) Combined-treated group: metformin 10 mmol/L+dihydroquercetin 0.2 mmol/L
The passage-cultured 22Rv1 cells were dissociated with trypsin, and suspended in fresh medium. The cell density of the cell suspension was determined using a hematocytometer and adjusted to 2.5×10^5 cells/mL. The cells were seeded on 12-well multiwell culture plate at 1 mL per well, and cultured overnight under the conditions of 37° C., 5% CO2. […] Upon centrifugation, the supernatants were sampled, and the amounts of relative phospho-4E-BP1 (Thr37/Thr46) protein in the samples were quantified using ELISA kits in the same manner as in Example 1. The concentrations of total protein in the whole cell lysates were measured using BCA protein assay, and the relative phospho-4E-BP1 protein amount of each well was normalized with the total protein amount. […]

[6] = tested on: phospho-4E-BP1 (Thr37/Thr46) protein; experiment: Relative phospho-4E-BP1 protein amount (ELISA) in human bile duct cancer cell line HuH-28 (Example 7); format: cell-based; settings: metformin 20 mmol/L, dihydroquercetin 0.2 mmol/L, single or combined, 6 hr, control 58.8
Description: On the following day after cell seeding, test substances were added and the cells were cultured for 6 hr before harvesting them. The amounts of relative phospho-4E-BP1 protein contained in the prepared whole cell lysates were measured and evaluated. Each group (N=3) was treated as follows: • (1) Control (vehicle control) group: 1% ethanol containing medium • (2) Metformin single-treated group: metformin 20 mmol/L • (3) dihydroquercetin single-treated group: dihydroquercetin 0.2 mmol/L • (4) combined-treated group: metformin 20 mmol/L+dihydroquercetin 0.2 mmol/L
The passage-cultured HuH-28 cells were dissociated with trypsin, and suspended in the medium. The cell density of the cell suspension was determined using a hematocytometer and adjusted to 2.5×10^5 cells/mL. The cells were seeded on 12-well multiwell culture plate at 1 mL per well, and cultured overnight under the conditions of 37° C., 5% CO2. […] Upon centrifugation, the supernatants were sampled, and the amounts of relative phospho-4E-BP1 (Thr37/Thr46) protein in the samples were quantified using ELISA kits in the same manner as in Example 1. The total protein concentrations in the whole cell lysates were measured using BCA protein assay, and the relative phospho-4E-BP1 protein amount of each well was normalized with the total protein amount. […]

WI-38 cells [7] = experiment: Lactate production in human lung fibroblast cell line WI-38, racemate and optically-active dihydroquercetin (Example 10); settings: for Metformin-induced lactate production: dihydroquercetin 1 mmol/L added 1 hr before metformin 20 mmol/L, 6 hr (FIG. 4, FIG. 5); for Lactate production: dihydroquercetin 1 mmol/L single, compared with the control group (FIG. 4, FIG. 5)
Description: On the following day after cell seeding, dihydroquercetin was added and the cells were cultured for 1 hr. Then, metformin was added and the cells were cultured for 6 hr. The conditioned medium was sampled, and the concentration of the lactate contained in the medium was measured and evaluated. Each group (N=3) was treated as follows: • (1) Control (vehicle control) group: 1% ethanol containing medium • (2) Dihydroquercetin single-treated group: dihydroquercetin 1 mmol/L • (3) Metformin single-treated group: metformin 20 mmol/L • (4) Combined-treated group: metformin 20 mmol/L+dihydroquercetin 1 mmol/L
The passage-cultured WI-38 cells were dissociated with trypsin, and suspended in fresh medium. The cell density of the cell suspension was determined using a hematocytometer and adjusted to 2.5×10^5 cells/mL. The cells were seeded on 24-well multiwell culture plate (IWAKI) at 0.5 mL per well, and cultured overnight under the conditions of 37° C., 5% CO2. Thereto was added a medium containing a given concentration of dihydroquercetin and the cells were cultured for 1 hr, a medium containing a given concentration of metformin was added and the cells were further cultured for 6 hr. After culture, the culture supernatant from each well was sampled and passed through a filter for molecular weight cut-off 10 kDa to obtain the filtrate. Using the Lactate Assay Kit II (BioVision) catalog no. K627-100, lactate concentration was measured. The cells after sampling of the culture supernatant were washed twice with D-PBS, and cell lysis buffer was added to prepare whole cell lysates. The concentrations of the protein in the whole cell lysates were measured using BCA protein assay, and the lactate concentration of each well was normalized with the protein concentration.
To evaluate the influence of dihydroquercetin on the metformin-induced produced lactate content, the Student's t-test was performed for the concentration of lactate in the medium between the control group and the dihydroquercetin single agent treated group, and between the control group and the metformin single agent treated group. In addition, to evaluate an influence of the combination of dihydroquercetin and metformin for normalized produced lactate content, a two-way ANOVA (two-tailed) (factors: group and concentration) was performed between the dihydroquercetin single agent treated group (groups 1 and 2) and the metformin treated group (groups 3 and 4). […] The analysis was performed using SAS software Release 9.3 (SAS Institute Japan). The differences were considered statistically significant when the p value was less than 0.05.

[8] = tested on: phospho-4E-BP1 (Thr37/Thr46) protein; experiment: Relative phospho-4E-BP1 protein amount (ELISA) in AsPC-1, dihydroquercetin single agent (Example 11); format: cell-based, human
Description: To evaluate the dose dependency of dihydroquercetin on the relative phospho-4E-BP1 protein amount, the linear regression analysis was performed. As a result, dose dependency was observed. Then, the Williams' test (one-tailed) was performed between the control group and the single agent treated group. As a result, a significant suppressive action of dihydroquercetin at not less than 0.5 mmol/L on relative phospho-4E-BP1 protein amount was observed.

WI-38 cells [9] = experiment: Metformin-induced lactate production in human lung fibroblast cell line WI-38 (Example 3); format: cell-based; settings: dihydroquercetin 1 mmol/L added 1 hr before metformin 20 mmol/L, 6 hr, vs metformin single (FIG. 3)
Description: After the culture, the conditioned medium was sampled, and the concentration of lactate contained in the medium was measured and evaluated.
Medium containing the given concentration of dihydroquercetin was added to each well and the cells were cultured for 1 hr. […] Using the Lactate Assay Kit II (BioVision) catalog no. K627-100, lactate concentration was measured.

[10] = metformin:dihydroquercetin = 1.5 mmol/L:0.3 mmol/L, control 107.3
[11] = metformin:dihydroquercetin = 3 mmol/L:0.3 mmol/L, control 33.5
[12] = metformin:dihydroquercetin = 6 mmol/L:0.3 mmol/L, control 107.3

Nc1ccn([C@@H]2O[C@H](CO)[C@@H](O)C2(F)F)c(=O)n1 [Gemcitabine, gemcitabine, reference compound]
Proportion of CD44 and CD24 double positive cells (AsPC-1 cells): significantly increased

CN(C)C(=N)N=C(N)N [Metformin, metformin]
Relative phospho-4E-BP1 protein amount MEAN [1, 10]: 83.1 | Relative phospho-4E-BP1 protein amount MEAN [1, 11]: 36.9 | Relative phospho-4E-BP1 protein amount MEAN [1, 12]: 83.1 | Relative phospho-4E-BP1 protein amount MEAN [2]: 61.7 | Relative phospho-4E-BP1 protein amount MEAN [3]: 37.1 | Relative phospho-4E-BP1 protein amount MEAN [4]: 22.0 | Relative phospho-4E-BP1 protein amount MEAN [5]: 57.3 | Relative phospho-4E-BP1 protein amount MEAN [6]: 55.2

O=C1c2c(O)cc(O)cc2OC(c2ccc(O)c(O)c2)C1O (racemic) [Dihydroquercetin, dihydroquercetin]
Relative phospho-4E-BP1 protein amount MEAN [1, 10]: 97.4 | Relative phospho-4E-BP1 protein amount MEAN [1, 11]: 37.2 | Relative phospho-4E-BP1 protein amount MEAN [1, 12]: 89.7 | Relative phospho-4E-BP1 protein amount MEAN [2]: 59.7 | Relative phospho-4E-BP1 protein amount MEAN [3]: 25.9 | Relative phospho-4E-BP1 protein amount MEAN [4]: 21.0 | Relative phospho-4E-BP1 protein amount MEAN [5]: 53.1 | Metformin-induced lactate production (WI-38 cells [7]): significantly suppressed | Lactate production (WI-38 cells [7]): suppressed lactate production | Concentration of dihydroquercetin with significant suppressive action on relative phospho-4E-BP1 protein amount ([8]; 6 hr, Williams' test vs control group): not less than 0.5 mmol/L | Relative phospho-4E-BP1 protein amount ([8]; dihydroquercetin 0.5 and 1 mmol/L single agent, 6 hr (FIG. 6)): dose-dependent suppressive effect | Relative phospho-4E-BP1 protein amount MEAN [6]: 54.2 | Proportion of CD44 and CD24 double positive cells (AsPC-1 cells): significantly decreased | Lactate production induced by metformin (WI-38 cells [9]): significantly suppressed the lactate production induced by metformin

O=C1c2c(O)cc(O)cc2O[C@H](c2ccc(O)c(O)c2)[C@H]1O [optically-active dihydroquercetin, (2R,3R)-dihydroquercetin]
Metformin-induced lactate production (WI-38 cells [7]): significantly suppressed | Lactate production (WI-38 cells [7]): suppressed lactate production

From US10292962B2, “Pharmaceutical combination comprising metformin and dihydroquercetin and its use for the treatment of cancer” (RESEARCH INSTITUTE FOR NUTRITION AND AGING CO., LTD., priority 2013, dated 2019)
